The values below come from patent US11718628B2, “SREBP inhibitors comprising a 6-membered central ring” (Capulus Therapeutics, LLC, priority 2018, dated 2023).

Usually melting point stands for the temperature of the solid-liquid transition. In general, bioavailability refers to the share of a dose that reaches the circulation, judged against a reference dose that is usually intravenous.

Data set [1] in a line: In vivo pharmacokinetic properties in rats (IV and PO). The arrangement: species or system male Sprague Dawley rats. The conditions noted are these: male, Sprague Dawley, rat, plasma. Put shortly: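 Male Sprague Dawley rats received 2.00 mg/kg IV via the tail vein, with plasma sampled from a cannulated jugular vein from 0.083 to 24 h. Oral dosing was 10 mg/kg in rats or C57BL/6J mice, sampled at 0.25-24 h by jugular cannula (rats) or retro-orbital plexus (mice).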

Molecules are shown by their SMILES. Like-named read-outs stand apart in the source and are kept apart here.

In turn, `CC(C)(C)c1cc(-c2cncc(-c3ccc(C(=O)N4CCC(O)CC4)cc3)c2F)ccn1` [Compound Z-866, (4-(2′-(tert-butyl)-4-fluoro-[3,4′-bipyridin]-5-yl)phenyl)(4-hydroxypiperidin-1-yl)methanone] returned a melting point of 100 to 104 °C. Besides, the AUC(0-t) in data set [1] (10 mg/kg, heading: Oral Administration AUC0-last, PO, 10 mg/kg) was 151 ng·h/mL. Moreover, the AUC(0-t) in data set [1] (IV, 2 mg/kg, read-out: Intravenous Delivery (IV) AUC0-last) came to 1070 ng·h/mL. Also, the clearance in data set [1] (IV, 2 mg/kg, read-out: Intravenous Delivery (IV) CL) was 31.7 mL/min/kg. For the same compound, the half-life in data set [1] (IV, 2 mg/kg, read-out: Intravenous Delivery (IV) T1/2 (converted)) was 54.6 min. Also, the Vd in data set [1] (IV, 2 mg/kg, read-out: Intravenous Delivery (IV) Vd) came out at 2.54 L/kg. Also, the bioavailability in data set [1] (PO 10 mg/kg vs IV 2 mg/kg, read-out: % F (Bioavailability of oral delivery)) turned out to be 2.8%. The half-life in data set [1] (PO, 10 mg/kg, read-out: Oral Administration (PO) T1/2 (converted)) was 41.4 min. For the same compound, the Tmax in data set [1] (PO, 10 mg/kg, read-out: Oral Administration (PO) Tmax) was found to be 30 min.
